In patent US6534523B1, “Hepatitis C inhibitor tri-peptides” (Boehringer Ingelheim (Canada) Ltd., priority 1998, dated 2003):

Target: HCV NS3 protease (UniProt P26663)
Assay type: biochemical, HCV genotype 1b
Design: rows headed: IC50 (μM); IC50 (μM)
Conditions: Table 8

HCV NS3 protease, sequence (P26663 1027-1206, other chains not shown): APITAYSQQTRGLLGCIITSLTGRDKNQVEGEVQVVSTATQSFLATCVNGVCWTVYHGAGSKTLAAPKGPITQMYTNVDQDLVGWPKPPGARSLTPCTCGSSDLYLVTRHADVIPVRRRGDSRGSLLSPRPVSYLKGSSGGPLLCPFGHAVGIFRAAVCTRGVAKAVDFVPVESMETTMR

| SMILES | IC50 [nM] |
| --- | --- |
| C=CC1CC1(NC(=O)C1CC(Oc2cc(-c3ccccc3)nc3cc(OC)ccc23)CN1C(=O)C(NC(=O)NN(C)C)C(C)(C)C)C(=O)O (stereo not shown) [compound 827] | 270 |
| C=CC1CC1(NC(=O)C1CC(Oc2cc(-c3ccccc3)nc3cc(OC)ccc23)CN1C(=O)C(Nc1cccc(C(C)=O)c1)C(C)C)C(=O)O (stereo not shown) [compound 828] | 100 |
| C=CC1CC1(NC(=O)C1CC(Oc2cc(-c3ccccc3)nc3cc(OC)ccc23)CN1C(=O)C(NC(=O)Nc1c(C)cccc1C)C(C)(C)C)C(=O)O (stereo not shown) [compound 829] | 57 |
| C=CC1CC1(NC(=O)C1CC(Oc2cc(-c3ccccc3)nc3cc(OC)ccc23)CN1C(=O)C(NC(=O)OC)C(C)(C)C)C(=O)O (stereo not shown) [compound 830] | 111 |
| C=CC1CC1(NC(=O)C1CC(Oc2cc(-c3ccccc3)nc3cc(OC)ccc23)CN1C(=O)C(NC(=O)NC(C)C(N)=O)C(C)(C)C)C(=O)O (stereo not shown) [compound 831] | 15 |
| C=CC1CC1(NC(=O)C1CC(Oc2cc(-c3ccccc3)nc3cc(OC)ccc23)CN1C(=O)C(NC(=O)NC(C)(C)C(N)=O)C(C)(C)C)C(=O)O (stereo not shown) [compound 833] | 15 |
| C=CC1CC1(NC(=O)C1CC(Oc2cc(-c3ccccc3)nc3cc(OC)ccc23)CN1C(=O)C(Nc1cccc(C)c1)C(C)C)C(=O)O (stereo not shown) [compound 834] | 74 |
| C=CC1CC1(NC(=O)C1CC(Oc2cc(-c3ccccc3)nc3cc(OC)ccc23)CN1C(=O)C(NC(=O)NC(C)(C)CO)C(C)(C)C)C(=O)O (stereo not shown) [compound 835] | 7 |
| C=CC1CC1(NC(=O)C1CC(Oc2cc(-c3ccccc3)nc3cc(OC)ccc23)CN1C(=O)C(Nc1ccc([N+](=O)[O-])cc1)C(C)C)C(=O)O (stereo not shown) [compound 836] | 130 |
| C=CC1CC1(NC(=O)C1CC(Oc2cc(-c3ccccc3)nc3cc(OC)ccc23)CN1C(=O)C(Nc1ccc(Cl)cc1)C(C)C)C(=O)O (stereo not shown) [compound 837] | 98 |
| C=CC1CC1(NC(=O)C1CC(Oc2cc(-c3ccccc3)nc3cc(OC)ccc23)CN1C(=O)C(Nc1cccc(CO)c1)C(C)C)C(=O)O (stereo not shown) [compound 838] | 94 |
| C=CC1CC1(NC(=O)C1CC(Oc2cc(-c3ccccc3)nc3cc(OC)ccc23)CN1C(=O)C(Nc1ccc(C#N)cc1)C(C)C)C(=O)O (stereo not shown) [compound 839] | 100 |
| C=CC1CC1(NC(=O)C1CC(Oc2cc(-c3ccccc3)nc3cc(OC)ccc23)CN1C(=O)C(Nc1ccc(F)cc1)C(C)C)C(=O)O (stereo not shown) [compound 840] | 85 |
| C=CC1CC1(NC(=O)C1CC(Oc2cc(-c3ccccc3C)nc3cc(OC)ccc23)CN1C(=O)C(NC(=O)OC(C)(C)C)C(C)(C)C)C(=O)O (stereo not shown) [compound 841] | 240 |
| C=CC1CC1(NC(=O)C1CC(Oc2cc(-c3cccc(C)c3)nc3cc(OC)ccc23)CN1C(=O)C(NC(=O)OC(C)(C)C)C(C)(C)C)C(=O)O (stereo not shown) [compound 842] | 73 |
| C=CC1CC1(NC(=O)C1CC(Oc2cc(-c3ccc(C)cc3)nc3cc(OC)ccc23)CN1C(=O)C(NC(=O)OC(C)(C)C)C(C)(C)C)C(=O)O (stereo not shown) [compound 843] | 53 |
| C=CC1CC1(NC(=O)C1CC(Oc2cc(-c3ccc(OC)cc3)nc3cc(OC)ccc23)CN1C(=O)C(NC(=O)NC(C)(C)C)C(C)(C)C)C(=O)O (stereo not shown) [compound 844] | 6 |
| C=CC1CC1(NC(=O)C1CC(Oc2cc(-c3ccccc3)nc3cc(OC)ccc23)CN1C(=O)C(Nc1ccc(NC(C)=O)cc1)C(C)C)C(=O)O (stereo not shown) [compound 845] | 180 |
| C=CC1CC1(NC(=O)C1CC(Oc2cc(-c3ccccc3)nc3cc(OC)ccc23)CN1C(=O)C(Nc1ccc2c(c1)OCO2)C(C)C)C(=O)O (stereo not shown) [compound 846] | 104 |
| C=CC1CC1(NC(=O)C1CC(Oc2cc(-c3ccccc3)nc3cc(OC)ccc23)CN1C(=O)C(NC(=O)OC(C)(C)C)C1CCCCC1)C(=O)O (stereo not shown) [compound 847] | 37 |
| C=CC1CC1(NC(=O)C1CC(Oc2cc(-c3ccccc3)nc3cc(OC)ccc23)CN1C(=O)C(CC(C)C)NC(=O)OC(C)(C)C)C(=O)O (stereo not shown) [compound 848] | 93 |
| C=CC1CC1(NC(=O)C1CC(Oc2cc(-c3ccccc3)nc3cc(OC)ccc23)CN1C(=O)C(CC(C)(C)C)NC(=O)OC(C)(C)C)C(=O)O (stereo not shown) [compound 849] | 110 |
| C=CC1CC1(NC(=O)C1CC(Oc2cc(-c3ccccc3)nc3cc(OC)ccc23)CN1C(=O)C(NC(=O)OC(C)(C)C)C(C)OC(C)(C)C)C(=O)O (stereo not shown) [compound 850] | 63 |

| SMILES | IC50 [nM] |
| --- | --- |
| C=CC1CC1(NC(=O)C1CC(Oc2cc(-c3ccccc3)nc3cc(OC)ccc23)CN1C(=O)C(NC(=O)OC(C)(C)C)C(C)OC)C(=O)O (stereo not shown) [compound 851] | 120 |
| C=CC1CC1(NC(=O)C1CC(Oc2cc(-c3ccccc3)nc3cc(OC)ccc23)CN1C(=O)C(NC(=O)OC(C)(C)C)C(C)OC)C(=O)O (stereo not shown) [compound 852] | 50 |
| C=CC1CC1(NC(=O)C1CC(Oc2cc(-c3ccccc3)nc3cc(OC)ccc23)CN1C(=O)C(NC(=O)OC(C)(C)C)C(C)OCc1ccccc1)C(=O)O (stereo not shown) [compound 853] | 170 |
| C=CC1CC1(NC(=O)C1CC(Oc2cc(-c3ccccc3)nc3cc(OC)ccc23)CN1C(=O)C(Nc1cccc(-c2ccccc2)c1)C(C)C)C(=O)O (stereo not shown) [compound 854] | 370 |
| C=CC1CC1(NC(=O)C1CC(Oc2cc(-c3ccccc3)nc3cc(OC)ccc23)CN1C(=O)C(Nc1cccc(CCO)c1)C(C)C)C(=O)O (stereo not shown) [compound 855] | 75 |
| C=CC1CC1(NC(=O)C1CC(Oc2cc(-c3ccccc3)nc3cc(OC)ccc23)CN1C(=O)C(Nc1ccc(CC#N)cc1)C(C)C)C(=O)O (stereo not shown) [compound 856] | 110 |
| C=CC1CC1(NC(=O)C1CC(Oc2cc(-c3ccccc3)nc3cc(OC)ccc23)CN1C(=O)C(NC(=O)NC(C)(C)COC)C(C)(C)C)C(=O)O (stereo not shown) [compound 857] | 11 |
| C=CC1CC1(NC(=O)C1CC(Oc2cc(-c3ccccc3)nc3cc(OC)ccc23)CN1C(=O)C(NC(=O)N(C)C(C)(C)C)C(C)(C)C)C(=O)O (stereo not shown) [compound 858] | 205 |
| C=CC1CC1(NC(=O)C1CC(Oc2cc(-c3ccccc3)nc3cc(OC)ccc23)CN1C(=O)C(NC1CCCCC1)C(C)C)C(=O)O (stereo not shown) [compound 859] | 830 |
| C=CC1CC1(NC(=O)C1CC(Oc2cc(-c3ccccc3)nc3cc(OC)ccc23)CN1C(=O)C(Nc1cccc(Oc2ccc(F)cc2)c1)C(C)C)C(=O)O (stereo not shown) [compound 860] | 240 |
| C=CC1CC1(NC(=O)C1CC(Oc2cc(-c3ccccc3)nc3cc(OC)ccc23)CN1C(=O)C(Nc1cccc(CC#N)c1)C(C)C)C(=O)O (stereo not shown) [compound 861] | 170 |
| C=CC1CC1(NC(=O)C1CC(Oc2cc(-c3ccccc3)nc3cc(OC)ccc23)CN1C(=O)C(Nc1cc(F)cc(F)c1)C(C)C)C(=O)O (stereo not shown) [compound 862] | 230 |
| C=CC1CC1(NC(=O)C1CC(Oc2cc(-c3ccccc3)nc3cc(OC)ccc23)CN1C(=O)C(Nc1ccc2ccccc2c1)C(C)C)C(=O)O (stereo not shown) [compound 863] | 300 |
| C=CC1CC1(NC(=O)C1CC(Oc2cc(-c3ccccc3)nc3cc(OC)ccc23)CN1C(=O)C(Nc1ccccc1F)C(C)C)C(=O)O (stereo not shown) [compound 864] | 450 |
| C=CC1CC1(NC(=O)C1CC(Oc2cc(-c3ccccc3)nc3cc(OC)ccc23)CN1C(=O)C(NC(=O)OC1CCOC1)C(C)(C)C)C(=O)O (stereo not shown) [compound 865] | 20 |
| C=CC1CC1(NC(=O)C1CC(Oc2cc(-c3ccccc3)nc3cc(OC)ccc23)CN1C(=O)C(NC(=O)OCC(C)(C)N)C(C)(C)C)C(=O)O (stereo not shown) [compound 866] | 200 |
| C=CC1CC1(NC(=O)C1CC(Oc2cc(-c3ccccc3)nc3cc(OC)ccc23)CN1C(=O)C(NC(=O)OC1CCOC1)C(C)(C)C)C(=O)O (stereo not shown) [compound 867] | 51 |
| C=CC1CC1(NC(=O)C1CC(Oc2cc(-c3ccccc3)nc3cc(OC)ccc23)CN1C(=O)C(NC(=O)OC1CCCCC1)C(C)(C)C)C(=O)O (stereo not shown) [compound 868] | 30 |
| C=CC1CC1(NC(=O)C1CC(Oc2cc(-c3ccccc3)nc3cc(OC)ccc23)CN1C(=O)C(NC(=O)OC1CCCC1)C(C)(C)C)C(=O)O (stereo not shown) [compound 869] | 14 |
| C=CC1CC1(NC(=O)C1CC(Oc2cc(-c3ccccc3)nc3cc(OC)ccc23)CN1C(=O)C(NC(=O)NC(C)(C)CC)C(C)(C)C)C(=O)O (stereo not shown) [compound 870] | 9 |
| C=CC1CC1(NC(=O)C1CC(Oc2cc(-c3ccccc3)nc3cc(OC)ccc23)CN1C(=O)C(NC(=O)NC(C)(CC)CC)C(C)(C)C)C(=O)O (stereo not shown) [compound 871] | 11 |
| C=CC1CC1(NC(=O)C1CC(Oc2cc(-c3ccccc3)nc3cc(OC)ccc23)CN1C(=O)C(NC(=O)NC(C)C(C)(C)C)C(C)(C)C)C(=O)O (stereo not shown) [compound 872] | 5 |
| C=CC1CC1(NC(=O)C1CC(Oc2cc(-c3ccccc3)nc3cc(OC)ccc23)CN1C(=O)C(NC(=O)NC(C)C(C)(C)C)C(C)(C)C)C(=O)O (stereo not shown) [compound 873] | 19 |

Same assay, conditions: Table 9

| SMILES | IC50 [nM] |
| --- | --- |
| C=CC1CC1(NC(=O)C1CC(Oc2cc(-c3ccccc3)nc3cc(OC)ccc23)CN1C(=O)C(NC(=O)C(CC(=O)O)C1CCCCC1)C(C)(C)C)C(=O)O (stereo not shown) [compound 903] | 5 |
| C=CC1CC1(NC(=O)C1CC(Oc2cc(-c3ccccc3)nc3cc(OC)ccc23)CN1C(=O)C(NC(=O)c1cccc(O)c1)C(C)(C)C)C(=O)O (stereo not shown) [compound 904] | 95 |
| C=CC1CC1(NC(=O)C1CC(Oc2cc(-c3ccccc3)nc3cc(OC)ccc23)CN1C(=O)C(NC(=O)OC1CCC1)C(C)(C)C)C(=O)O (stereo not shown) [compound 905] | 29 |
| C=CC1CC1(NC(=O)C1CC(Oc2cc(-c3ccccc3)nc3cc(OC)ccc23)CN1C(=O)C(NC(=O)NC(CC)C(C)(C)C)C(C)(C)C)C(=O)O (stereo not shown) [compound 906] | 14 |
| C=CC1CC1(NC(=O)C1CC(Oc2cc(-c3ccccc3)nc3cc(OC)ccc23)CN1C(=O)C(NC(=O)OC1CCSC1)C(C)(C)C)C(=O)O (stereo not shown) [compound 907] | 25 |
| C=CC1CC1(NC(=O)C1CC(Oc2cc(-c3ccccc3)nc3cc(OC)ccc23)CN1C(=O)C(NC(=O)c1ccccc1)C(C)(C)C)C(=O)O (stereo not shown) [compound 908] | 72 |
| C=CC1CC1(NC(=O)C1CC(Oc2cc(-c3ccccc3)nc3cc(OC)ccc23)CN1C(=O)C(NS(=O)(=O)c1ccccc1)C(C)(C)C)C(=O)O (stereo not shown) [compound 909] | 36 |
| C=CC1CC1(NC(=O)C1CC(Oc2cc(-c3ccccc3)nc3cc(OC)ccc23)CN1C(=O)C(NC(=O)OC(C)C(C)(C)C)C(C)(C)C)C(=O)O (stereo not shown) [compound 910] | 56 |
| C=CC1CC1(NC(=O)C1CC(Oc2cc(-c3ccccc3)nc3cc(OC)ccc23)CN1C(=O)C(NC(=O)c1cccc(O)c1C)C(C)(C)C)C(=O)O (stereo not shown) [compound 911] | 39 |
